# In US20240299698A1, “PREVENTION AND TREATMENT OF POST-OPERATIVE COGNITIVE DYSFUNCTION (POCD)” (Noetix Pharma LLC, priority 2022, published 2024):
# Key:
# mouse model of (POCD) [1] = assay: Fear conditioning context testing in laparotomy mouse model of POCD; type: in vivo, Male C57BI/6 mice
# Source text: (§1) To induce POCD, mice were anesthetized with isoflurane and maintained at a surgical plane of anesthesia (2-2.5%). The abdomen was shaved and cleaned/disinfected with both betadine and ethanol (70%). A 1.5 cm vertical incision was made along the midline of the abdomen, perforating the skin and the peritoneal cavity. A sterile blunt probe was inserted into the cavity, and the abdominal viscera and musculature were manipulated for five minutes. Abdominal muscles and skin were sutured, polysporin and topical lidocaine were applied to the incision site, and buprenorphine (0.1 mg/kg s.c.) was administered. Animals were placed into a clean, pre-warmed home cage for recovery and housed singly thereafter.
# (§2) Fear conditioning is a commonly used test of associative learning where a […] stimulus is paired with an aversive unconditioned stimulus, resulting in a freezing response that can be subsequently quantified. Training occurred on the day prior to surgery, context testing on PSD1 (i.e., 2 days after training) and PSD3 (i.e., 4 days after training), and cued testing on PSD3 at a time point three hours after the final context test. For training and context testing, mice were placed in an operant chamber (Med Associates). For cued testing, mice were placed into a novel arena with novel external environment and scent.
# (§3) Fear conditioning training was performed to generate an association between a neutral “conditional” stimulus (80 dB tone) with an aversive “unconditional” stimulus (0.4 mA shock). Before training, the system was tested to confirm proper operation of the shock and tone. During training, the testing environment was kept quiet and well controlled. Temperature and humidity levels were kept constant and the experimenter was not visible from the operant chamber, which was cleaned between animals. The training protocol was as follows: 1. Each mouse was habituated to the testing room for 20 minutes. 2. Video recording was initiated and the animal's ID card was recorded. 3. Each mouse was placed into the operant chamber and the training protocol was implemented as follows: a. 120 seconds; no stimuli (habituation to the chamber); b. 20 seconds, tone presentation (80 dB); c. 20 seconds, no stimuli (trace delay period); d. 2 seconds, foot shock (0.4 mA); e. 90 seconds, no stimuli (intertrial interval); f. repeat steps a-d followed by a final 30 second no stimuli period. 4. The mouse was returned to its home cage.
# The purpose of context testing is to evaluate context memory for an aversive environment. Materials for this process included the operant testing chamber, a video recorder, a stopwatch, and data recording sheets. During the testing process the testing environment was kept quiet and well controlled with constant temperature and humidity levels. It was ensured that the experimenter was not visible from the operant chamber. The chamber was cleaned between animals.
# Context testing was performed as follows: 1. The mouse was habituated to the testing room for 15 minutes. 2. Video recording was initiated and the animal's ID card recorded. 3. The mouse was placed in the operation chamber and allow ed 270 seconds exploration time. 4. The mouse was returned to its home cage.
# Fear conditioning context testing was performed on PSD1 and PSD3, with exposure to the contextual environment presented at the equivalent time of day to the training period in the same arena as was used for training. On PSD3, following the final contextual testing, the cued testing phase was performed. […]
# mouse model of (POCD) [2] = assay: Fear conditioning cued testing in laparotomy mouse model of POCD; type: in vivo, Male C57BI/6 mice; conditions: PSD3
# Source text: as §1, §2, §3
# The purpose of cued testing is to evaluate cued memory for an aversive stimulus. […]
# Cued testing was performed as follows: 1. […] Video recording was initiated and the animal's ID card was recorded. […]
# mouse model of (POCD) [3] = assay: Behavioral test battery, summary of experimental results; type: in vivo, Male C57BI/6 mice
# Source text: The project included experiments performed to investigate the therapeutic effects of administration of pirfenidone in a mouse model of (POCD). The model was developed during pilot work completed earlier in the study and was induced by performing a laparotomy with a 5-minute manipulation of abdominal viscera and musculature. Weights and physical condition of the animals were closely monitored throughout the study, with presurgical and daily post-surgical gavage of pirfenidone or saline administered. Behavioral testing was performed to evaluate alterations in learning and memory processes using fear conditioning, novel object recognition, and water maze paradigms. Following euthanasia on the eighth day post-surgery, hippocampal tissue was preserved and later evaluated for morphological characteristics related to microglial cell activation.
# Behavioral testing was performed at various time points throughout the study as outlined in each separate section below and summarized in Table 2. All tests were recorded and analyzed by experimenters blinded to treatment. Data were obtained through a combination of experimenter scoring and use of AnyMaze™ Video Tracking System evaluation.
# [4] = healthy subjects; cited from earlier work
smiles,measurement,setting,value
"Cc1ccc(=O)n(-c2ccccc2)c1 [pirfenidone, 5-methyl-1-phenyl-2-(1H)-pyridone]","time spent freezing, contextual test, within-group PSD3 compared to PSD1","mouse model of (POCD) [1]; Acute (400 mg/kg p.o. single presurgical dose), p=0.009, paired t-test",less time freezing
same,"time spent freezing, contextual test, within-group PSD3 compared to PSD1","mouse model of (POCD) [1]; Chronic (400 mg/kg initial; 200 mg/kg p.o. 1x/day), p=0.942, paired t-test",no difference between test presentation days
same,"time spent freezing, contextual test","mouse model of (POCD) [1]; PSD1, Acute (400 mg/kg p.o. single presurgical dose) compared to Chronic pirfenidone animals, p=0.027, LSD post-hoc",increased freezing
same,"time spent freezing, contextual test","mouse model of (POCD) [1]; PSD3, Acute (400 mg/kg p.o. single presurgical dose) vs Normal Controls",performed equivalently to Normal Controls
same,"time spent freezing, contextual test, between groups","mouse model of (POCD) [1]; PSD3, Acute and Chronic groups and controls, p=0.671, One-way ANOVA",no statistical difference between groups
same,freezing during cued testing (overall measures),"mouse model of (POCD) [2]; Acute (400 mg/kg p.o. single dose) compared to Chronic pirfenidone and Disease controls, longer freeze times",increased mean performance
same,"freezing time, cued testing, post-tone period","mouse model of (POCD) [2]; Acute compared to Disease Control mice, longer freeze times",increased mean performance
same,freezing during cued testing (overall measures),mouse model of (POCD) [2]; Chronic (400 mg/kg initial; 200 mg/kg p.o. 1x/day),performed more similarly to Disease Control
same,"freezing time, cued testing, post-tone period","mouse model of (POCD) [2]; Chronic vs Normal Controls, p=0.088",trend toward decreased freezing times
same,behavioral testing responses (summary),mouse model of (POCD) [3]; Acute pirfenidone treated animals,equivalent to or better than those seen in Normal Controls
same,behavioral testing responses (summary),mouse model of (POCD) [3]; Chronic pirfenidone administration,"beneficial effects, particularly for recognition memory"
same,behavioral changes associated with memory in postoperative cognitive dysfunction (summary),"mouse model of (POCD) [3]; overall, pirfenidone treatment",protective effect
same,mean terminal half-life,[4],approximately 3 hours
